These results are taken from paper PMC7076525, “Pharmacokinetics and Intestinal Metabolism of Compound K in Rats and Mice” (Pharmaceutics, 2020).

On the set-up of data set [1]: method as in PMID 28955238. The note with it: humans, 200 mg compound K tablet; cited from earlier work.
The conditions of data set [2]: cited from earlier work.
Details of data set [3]: method as in PMID 16302287, PMID 32148404, PMID 30013338, PMID 26680316. The note with it: cited from earlier work.
The test system of the next data set is Caco-2 cells. On the set-up: method as in PMID 16302287, PMID 32148404, PMID 30013338, PMID 26680316. The note with it: cited from earlier work.
A short description of data set [4]: Pharmacokinetic study after intravenous compound K (2 mg/kg) in SD rats: plasma, feces, urine.

Values joined by “and” are separate entries in the source; they are usually repeats but may differ in a detail not shown here. Equal entries are not always repeated. Where two headings read alike, the source gives them in different places.

As to `CC(C)=CCCC(C)(OC1OC(CO)C(O)C(O)C1O)C1CCC2(C)C1C(O)CC1C3(C)CCC(O)C(C)(C)C3CCC12C` [compound K, 20-O-beta-(D-Glucopyranosyl)-20(S)-protopanaxadiol], in data set [1], the “increase of AUC by high-fat meal compared with fasting group” value was 2.2 fold and the “increase of Cmax by high-fat meal compared with fasting group” value was 2.0 fold. For the same compound, in data set [2] (12 Japanese subjects, single oral fermented ginseng tablet (274.4 mg total; 2.2 mg as compound K)), the Cmax is recorded as 41.5 ng/mL. In addition, the maximum concentration (Cmax) in data set [2] (subjects given non-fermented Korean red ginseng extract (3 g total; 0 mg as compound K)) was 3.2 to 24.8 ng/mL. Also, in data set [2] (subjects given oral fermented Korean red ginseng (3 g total; 10.9 mg as compound K)), the “mean Cmax” value is recorded as 254.5 ng/mL. Besides, the LogP value in data set [3] is given as 3.85. For the same compound, the permeability with Caco-2 cells is given as 0.5–2 × 10^−6 cm/s. In data set [4] (SD, rat, plasma, iv, 2 mg/kg), this compound displayed an AUC(0-inf) of 670 ± 284 ng·h/mL, an AUC(0-t) of 639 ± 299 ng·h/mL, a C0 of 75.3 ± 23.3 ng/mL and an MRT of 8.9 ± 0.4 h. In data set [4] (SD, rat, plasma, iv, 2 mg/kg), this compound gave a volume of distribution (Vd) of 31.8 ± 3.1 L/kg, a clearance of 59 ± 21.8 mL/min/kg and a half-life of 7.3 ± 0.4 h. In addition, the “Recovery48 h Feces” value in data set [4] (rat, after compound K IV 2 mg/kg, over 48 h (Table 4)) is recorded as 13.8 ± 7.1 % of Dose. In addition, the “Feces48 h (fecal recovery)” value in data set [4] (rat, compound K IV 2 mg/kg, 48 h, 2 mg/kg) was 13.8 % of dose and ~13.8 ± 7.1 % of dose. Further, the “CL and Vd, fold larger in rats than in mice” value in data set [4] (rats versus mice, compound K IV 2 mg/kg) is recorded as “about five-fold larger”.
